Data from PMC8151276, “An Integrated Approach toward NanoBRET Tracers for Analysis of GPCR Ligand Engagement” (Molecules, 2021).

Key:
Assay type in all cases: binding
[1] = molecular target: T1, P2RY4 (Homo sapiens, UniProt P51582); test: NanoBRET screen HiBiT-P2RY4 in HEK293
T1 construct: purchased Promega (in-house HiBiT-GPCR construct library, NanoBRET)
Experimental: (§1) Each tracer candidate was screened across the entire library of HiBiT-GPCR constructs using NanoBRET as the detection modality. As depicted in Figure 4A, the specificity of interactions was evaluated through decrease in BRET due to competitive displacement of a bound tracer by excess parental compound. Each tracer was analyzed for binding to each HiBiT-GPCR fusion in the absence and in the presence of competing parental compound. Briefly, HEK293 cells were transfected with HiBiT-GPCR constructs diluted into promoterless DNA to reduce expression and maximize translocation to the cell surface. Each tracer candidate was then screened at concentrations of 1 μM and 0.1 μM across cells expressing these fusions. Cells were treated for 1.5 h with tracer either alone or in the presence of 20 μM competing parental compound (i.e., control). BRET was measured upon addition of purified LgBiT and subsequent complementation with HiBiT genetically fused to a GPCR. The specificity of interactions was assessed through a decrease in BRET signal due to competitive displacement of the bound tracer. To further gauge the robustness of these interactions, the fold response over the control (i.e., BRETtracer/BRETcontrol) was calculated. We chose a 1.5-fold response, which translates to ≥7-fold signal over noise as the minimal threshold required to score an interaction as positive. […]. Below we highlight the screening results obtained for our exemplary fluorescent tracers based on Clozapine, Amitriptyline and AZD1283.
(§2) HiBiT-GPCR DNA constructs were diluted in 10 mM Tris pH 8 to a final concentration of 0.01 μg/μL, arrayed in 96-well plates and stored at −20 °C. For transfection, HEK293 cells were suspended in Opti-MEM (without phenol red) supplemented with 2% fetal bovine serum (Seradigm) and 100 units/mL penicillin–streptomycin (Gibco) at a final concentration of 220,000 cells/mL and dispensed into white 96-well plates at 90 μL/well. Subsequent transfections and screens were carried using an Agilent Bravo Automated Liquid Handling Platform. First, the 96-well HiBiT DNA arrays were diluted 25-fold in Opti-MEM (without serum or phenol red) to a final concentration of 0.0004 μg/μL and 20 μL of the diluted DNAs were transferred into new 96-well plates. Next, promoterless carrier DNA (1 μg/μL) was diluted 25-fold (0.04 μg/μL) and then dispensed into the diluted arrays at 20 μL/well. Following brief mixing, Viafect transfection reagent (Promega) diluted 16-fold into Opti-MEM was dispensed into the plates at 40 μL/well. After mixing by pipetting, plates were incubated for 10 min on the pipetting station deck. The DNA-transfection reagent complexes were then added to plates containing cells. To facilitate the screen, 10 μL of DNA-transfection reagent complexes were added in duplicates to the top 4 and bottom 4 rows, resulting in two identical 48-well arrays per plate. Plates with transfected cells were incubated for 18–20 h at 37 °C/5% CO2. A screen of each tracer across the entire library using two different concentrations requires duplicate plates of transfected cells. Depending on the number of tracers being screened, transfections can be scaled up using the same ratios. The next day, for each tracer, four 20× screening solutions in tracer dilution buffer (Promega) were prepared: two duplicates at final concentration of 20 μM and two duplicates at a final concentration of 2 μM. A competing unmodified compound was added to one of each duplicate at a final concentration of 400 μM. The four resulting solutions were diluted 4-fold in Opti-MEM without serum or phenol red to generate 5× solutions (5 µM and 0.5 µM tracer +/− 100 μM competing compound). To screen the library, a BioTek MultiFlo FX liquid dispenser was used to dispense 22.5 µL of tracer solution to the top 4 rows and 22.5 µL tracer + competing compound solution to the 4 bottom rows. Plates were briefly mixed on an orbital shaker and incubated for 1.5 h at room temperature. […]

[2] = molecular target: T2, C5AR1 (Homo sapiens, UniProt P21730); test: NanoBRET screen HiBiT-C5AR1 in HEK293
T2 construct: purchased Promega (in-house HiBiT-GPCR construct library, NanoBRET)
T2 sequence (P21730 1-350): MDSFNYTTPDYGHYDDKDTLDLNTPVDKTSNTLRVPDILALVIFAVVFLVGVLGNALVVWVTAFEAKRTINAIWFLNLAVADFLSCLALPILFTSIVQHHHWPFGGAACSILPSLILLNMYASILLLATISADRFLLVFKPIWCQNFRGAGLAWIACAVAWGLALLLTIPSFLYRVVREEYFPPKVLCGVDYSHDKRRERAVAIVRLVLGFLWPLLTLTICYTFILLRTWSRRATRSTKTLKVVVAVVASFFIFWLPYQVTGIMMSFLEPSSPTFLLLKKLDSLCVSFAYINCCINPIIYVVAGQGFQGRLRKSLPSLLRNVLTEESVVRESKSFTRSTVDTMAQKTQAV
Experimental: as §1, §2

[3] = molecular target: T3, GALR2 (Homo sapiens, UniProt O43603); test: NanoBRET screen HiBiT-GALR2 in HEK293
T3 construct: purchased Promega (in-house HiBiT-GPCR construct library, NanoBRET)
T3 sequence (O43603 1-387): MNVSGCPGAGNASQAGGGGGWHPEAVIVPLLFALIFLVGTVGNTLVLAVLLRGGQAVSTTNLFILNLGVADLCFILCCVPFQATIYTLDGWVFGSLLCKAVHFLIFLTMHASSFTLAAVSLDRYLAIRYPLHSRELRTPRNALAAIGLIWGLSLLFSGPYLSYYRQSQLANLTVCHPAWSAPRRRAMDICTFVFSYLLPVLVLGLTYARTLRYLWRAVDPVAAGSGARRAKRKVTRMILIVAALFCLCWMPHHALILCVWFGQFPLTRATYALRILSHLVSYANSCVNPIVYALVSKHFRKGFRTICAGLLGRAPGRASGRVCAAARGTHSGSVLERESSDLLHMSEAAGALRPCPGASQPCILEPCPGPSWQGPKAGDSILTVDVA
Experimental: as §1, §2

[4] = molecular target: T4, HRH4 (Homo sapiens, UniProt Q9H3N8); test: NanoBRET screen HiBiT-HRH4 in HEK293
T4 construct: purchased Promega (in-house HiBiT-GPCR construct library, NanoBRET)
Experimental: as §1, §2

T4 sequence (Q9H3N8 whole entry): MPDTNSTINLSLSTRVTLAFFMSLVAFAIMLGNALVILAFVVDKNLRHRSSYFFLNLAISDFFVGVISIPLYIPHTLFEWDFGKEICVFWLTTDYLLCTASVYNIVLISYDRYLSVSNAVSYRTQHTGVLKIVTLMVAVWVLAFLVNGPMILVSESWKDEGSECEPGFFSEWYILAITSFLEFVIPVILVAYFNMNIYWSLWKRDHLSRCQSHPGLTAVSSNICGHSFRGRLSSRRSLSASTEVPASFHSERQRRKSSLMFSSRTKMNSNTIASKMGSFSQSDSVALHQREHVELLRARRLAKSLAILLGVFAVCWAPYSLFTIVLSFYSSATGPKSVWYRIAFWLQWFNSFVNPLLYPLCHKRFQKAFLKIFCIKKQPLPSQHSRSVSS
T1 sequence (P51582 whole entry): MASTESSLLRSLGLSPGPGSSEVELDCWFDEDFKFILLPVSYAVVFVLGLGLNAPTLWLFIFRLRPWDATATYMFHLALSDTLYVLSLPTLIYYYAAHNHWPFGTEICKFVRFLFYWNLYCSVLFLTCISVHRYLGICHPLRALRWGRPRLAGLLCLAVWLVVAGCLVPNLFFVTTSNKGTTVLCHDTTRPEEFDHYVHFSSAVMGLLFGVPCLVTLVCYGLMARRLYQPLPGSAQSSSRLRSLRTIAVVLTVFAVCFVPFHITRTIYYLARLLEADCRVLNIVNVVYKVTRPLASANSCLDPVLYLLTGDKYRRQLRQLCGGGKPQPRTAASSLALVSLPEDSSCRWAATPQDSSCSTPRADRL

SMILES: CN1CCN(C2=Nc3cc(Cl)ccc3N(CC(=O)NCCOCCOCCOCCOCCNC(=O)CCc3ccc4n3[B-](F)(F)[N+]3=C(c5ccc[nH]5)C=CC3=C4)c3ccccc32)CC1 [Clozapine-c-2-NB590]
- NanoBRET Fold Response ([1]; P2RY4, 0.1μM tracer): 1.00
- NanoBRET Fold Response ([1]; P2RY4, 1μM tracer): 0.95
- NanoBRET Fold Response ([2]; C5AR1, 0.1μM tracer): 1.00
- NanoBRET Fold Response ([2]; C5AR1, 1μM tracer): 1.05
- NanoBRET Fold Response ([3]; GALR2, 0.1μM tracer): 1.00
- NanoBRET Fold Response ([3]; GALR2, 1μM tracer): 1.05
- NanoBRET Fold Response ([4]; HRH4, 0.1μM tracer): 1.04
- NanoBRET Fold Response ([4]; HRH4, 1μM tracer): 0.97

SMILES: CN(C)CCC=C1c2ccccc2CCc2ccc(C(=O)NCCNC(=O)CCOCCOCCOCCOCCNC(=O)CCc3ccc4n3[B-](F)(F)[N+]3=C(c5ccc[nH]5)C=CC3=C4)cc21 [Amitriptyline-a-2-NB590]
- NanoBRET Fold Response ([1]; tracer at 0.1μM): 1.01
- NanoBRET Fold Response ([1]; tracer at 1μM): 1.02
- NanoBRET Fold Response ([2]; tracer at 0.1μM): 1.03
- NanoBRET Fold Response ([2]; tracer at 1μM): 1.01
- NanoBRET Fold Response ([3]; tracer at 0.1μM): 1.02
- NanoBRET Fold Response ([3]; tracer at 1μM): 0.99
- NanoBRET Fold Response ([4]; tracer at 0.1μM): 1.23
- NanoBRET Fold Response ([4]; tracer at 1μM): 1.04

SMILES: Cc1nc2n(c(=O)c1CCN1CCC(c3noc4cc(F)ccc34)CC1)CCCC2OC(=O)NCCOCCOCCOCCOCCNC(=O)CCc1ccc2n1[B-](F)(F)[N+]1=C(c3ccc[nH]3)C=CC1=C2 (centres unmarked) [Risperidone-2-NB590]
- NanoBRET Fold Response ([1]; P2RY4, tracer 0.1μM): 1.08
- NanoBRET Fold Response ([1]; P2RY4, tracer 1μM): 0.90
- NanoBRET Fold Response ([2]; C5AR1, tracer 0.1μM): 0.95
- NanoBRET Fold Response ([2]; C5AR1, tracer 1μM): 0.99
- NanoBRET Fold Response ([3]; GALR2, tracer 0.1μM): 1.03
- NanoBRET Fold Response ([3]; GALR2, tracer 1μM): 0.97
- NanoBRET Fold Response ([4]; HRH4, tracer 0.1μM): 1.03
- NanoBRET Fold Response ([4]; HRH4, tracer 1μM): 1.07

SMILES: COc1ccc2[nH]c(-c3ccc(CNC(=O)CCOCCOCCOCCOCCNC(=O)CCc4ccc5n4[B-](F)(F)[N+]4=C(c6ccc[nH]6)C=CC4=C5)cc3)c(CCNC(C)=O)c2n1 [AzomelatoninICO9-2-NB590]
- NanoBRET Fold Response ([1]; 0.1μM tracer): 1.03
- NanoBRET Fold Response ([1]; 1μM tracer): 1.13
- NanoBRET Fold Response ([2]; 0.1μM tracer): 0.99
- NanoBRET Fold Response ([2]; 1μM tracer): 0.98
- NanoBRET Fold Response ([3]; 0.1μM tracer): 0.92
- NanoBRET Fold Response ([3]; 1μM tracer): 1.01
- NanoBRET Fold Response ([4]; 0.1μM tracer): 0.80
- NanoBRET Fold Response ([4]; 1μM tracer): 1.14

SMILES: COc1ccccc1N1CCN(CCCCN2C(=O)c3ccc(CNC(=O)CCOCCOCCOCCOCCNC(=O)CCc4ccc5n4[B-](F)(F)[N+]4=C(c6ccc[nH]6)C=CC4=C5)cc3C2=O)CC1 [NAN-190-2-NB590]
- NanoBRET Fold Response ([1]; P2RY4, tracer 1μM): 1.18
- NanoBRET Fold Response ([2]; C5AR1, tracer 0.1μM): 1.03
- NanoBRET Fold Response ([2]; C5AR1, tracer 1μM): 1.04
- NanoBRET Fold Response ([3]; GALR2, tracer 0.1μM): 1.00
- NanoBRET Fold Response ([3]; GALR2, tracer 1μM): 0.99
- NanoBRET Fold Response ([4]; HRH4, tracer 0.1μM): 0.96

SMILES: CN(CCC=C1c2ccccc2CCc2ccccc21)C(=O)CCOCCOCCOCCOCCNC(=O)CCc1ccc2n1[B-](F)(F)[N+]1=C(c3ccc[nH]3)C=CC1=C2 [Amitriptyline-e-2-NB590]
- NanoBRET Fold Response ([1]; tracer at 1μM): 1.04
- NanoBRET Fold Response ([2]; tracer at 1μM): 1.02
- NanoBRET Fold Response ([4]; tracer at 1μM): 0.92
